Laboratory results from patent US20220296623A1, “REDUCED NICOTINAMIDERIBOSIDES FOR TREATING OR PREVENTING KIDNEY DISEASE” (SOCIETE DES PRODUITS NESTLE S.A., priority 2019, published 2022).
Where a name gives a salt, the structure may show the parent alone.

Assays:
[1] = Circulating NAM, NRH and NR after intraperitoneal injection; type: in vivo, mice; details: IP 500 mg/kg
Excerpt: (§1) Levels of NRH and other NAD-related metabolites in biological samples were obtained by using a cold liquid-liquid extraction using a mixture of methanol:water:chloroform in 5:3:5 (v/v), from which the polar phase was recovered for hydrophilic interaction ultra-high performance liquid chromatography mass spectrometry (UHPLC-MS) analysis. The UHPLC consisted of a binary pump, a cooled autosampler, and a column oven (DIONEX Ultimate 3000 UHPLC+ Focused, Thermo Scientific), connected to a triple quadrupole spectrometer (TSQ Vantage, Thermo Scientific) equipped with a heated electrospray ionisation (H-ESI) source. Of each sample, 2 μL were injected into the analytical column (2.1 mm×150 mm, 5 μm pore size, 200 Å HILICON iHILIC®-Fusion(P)), guarded by a pre-column (2.1 mm×20 mm, 200 Å HILICON iHILIC®-Fusion(P) Guard Kit) operating at 35° C. The mobile phase (10 mM ammonium acetate at pH 9, A, and acetonitrile, B) was pumped at 0.25 mL/min flow rate over a linear gradient of decreasing organic solvent (0.5-16 min, 90-25% B), followed by re-equilibration for a total run time of 30 min. The MS operated in positive mode at 3500 V with multiple reaction monitoring (MRM). The software Xcalibur v4.1.31.9 (Thermo Scientific) was used for instrument control, data acquisition and processing. Retention time and mass detection was confirmed by authentic standards.
(§2) The above results prompted us to test whether NRH could act as an effective NAD+ precursor in vivo. For this, we first intraperitoneally (IP) injected mice with either NR or NRH (500 mg/kg).

[2] = parameters: species or system mice; details: mouse, in vivo, po
Excerpt: as §1
Oral administration of NRH led to very similar results to those observed after IP administration. […] In contrast, NR levels were undetectable at 1 h after NR administration. As expected, NR treatment led to large increases in circulating NAM, which where ˜4-fold higher than those observed after NRH treatment.

[3] = Stability of NRH or NR spiked in isolated mouse plasma; type: in vitro ADME; details: 2 h of incubation
Excerpt: as §1
(§3) NR degradation to NAM has been proposed as a limitation for its pharmacological efficacy. To evaluate whether NRH was also susceptible to degradation to NAM, we spiked NRH or NR in isolated mouse plasma. […] We also tested the stability of NRH in other matrixes.

[4] = tested on: NAD+ levels in liver, muscle and kidney; experiment: Tissue NAD+ levels after intraperitoneal injection of NR or NRH; type: in vivo, mice; details: IP 500 mg/kg, after 1 h
Experimental: as §2

NRK1 = experiment: NAD+ levels in primary hepatocytes from control or NRK1 knockout mice; details: 1 hour of treatment
[5] = Stability in FBS supplemented media; type: in vitro ADME
Excerpt: as §3

## NC(=O)c1ccc[n+]([C@@H]2O[C@H](CO)[C@@H](O)[C@H]2O)c1 [NR, 1-b-D-ribofuranosyl-3-pyridinecarboxamide salt, reference compound]
[1]
  NAM levels in circulation: highly increased in circulation
[2]; C57BI/6NTac, 1 h
  circulating NAM after NR treatment relative to NRH treatment: ~4 fold
[2]
  administered compound in plasma: undetectable
[3]
  compound levels in isolated mouse plasma: decayed in plasma
  generation of NAM in isolated mouse plasma: increase in NAM
[4]
  NAD+ levels in kidney: increased NAD+ levels
  NAD+ levels in liver: increased NAD+ levels
  NAD+ levels in muscle: increased NAD+ levels
NRK1
  NAD+ levels in NRK1KO derived primary hepatocytes: failed to increase NAD+ levels
[5]
  degradation to NAM in FBS supplemented media: as occurs with NR
